Values after ≈ are worked out from the molar mass of the structure shown.
Tested on: kinetic aqueous solubility, PBS pH 7.4, LC-UV/MS
Assay: Inhibitors of HPGD: Aqueous Solubility Profiling
Conditions: hits give high values

solubility | Structure (SMILES)
35.9 µM (≈ 11 µg/mL) | Cc1cc(-c2nnc3n2CCCCC3)c(C)n1-c1ccccc1
3 µM (≈ 0.958 µg/mL) | Cc1cccc(-n2cnc3cc(C(=O)N4CCCCC4)ccc32)c1
